Data taken from patent US20230323292A1, “METHODS FOR PRODUCING A (THREE DIMENSIONAL) NEURAL TISSUE” (TECHNISCHE UNIVERSITEIT EINDHOVEN, priority 2020, published 2023).
Where a name gives a salt, the structure may show the parent alone.

Test system: MARC-produced cerebral tissues
Assay: Live calcium imaging of interconnected MARC-produced cerebral tissues in the iS3CC chip after Penicillin G treatment of one chamber
Format: cell-based, human
Experimental: The transparent PDMS devices were repeatedly washed using 70% ethanol followed by sterilization using UV light in the safety cabinets (3×5 min). After neuronal induction phase, the cells were disassociated using Accutase and resuspended in 35 μl of a mixture of cold GFR-Matrigel and differentiation medium with a 70:30 v/v ratio at a final concentration of 50,000 cells per chamber. The chips containing cells and Matrigel-medium mixture were placed in a Petri dish to prevent contamination, since the chips have an open top, and kept in an incubator at 37° C. and 5% CO2 for 5 min to polymerize the Matrigel mixture. After that, an additional 200 μl of differentiation medium was added to each chamber and the chips were placed back into the incubator. The medium was refreshed and the culture was continued as described above, with gentler handing to prevent damage to the gel and cells.
Live calcium imaging was performed with the same widefield epifluorescence microscope, equipped with temperature, CO2, and humidity control. The tissues were incubated in the recommended concentrations of Fluo-4 direct according to the manufacturer (Molecular Probes, F10471) for 50 min in the incubator at 37° C. and 10 min at room temperature. After that, the tissues were washed five times with the neural maintenance medium. The calcium surges were recorded using an excitation of 488 nm and an emission of 530 nm every 10 seconds. Fluorescence images were obtained using a widefield epifluorescence microscope (Leica DMi8) equipped with either a 5×/0.15 HC PL Fluotar or a 10×/0.32 HC PL Fluotar objective lens. […]
Neuronal activity was analyzed from the time-lapse images. To account for possible drifts or deformations of the tissues, the location of the cells was detected in each frame and linked across the frames using the Mosaic particle tracker plugin in ImageJ. The fluorescence intensity of each detected cell was calculated from the image intensity data using MATLAB. Occasional gaps in the time traces, due to the cells not being detected in certain frames, were filled using spline interpolation of the intensity values. The background fluorescence in each chamber was calculated in the same way using 10 arbitrarily selected cell-sized ROIs in the cell-free regions of each chamber, averaged, and subtracted from the real (cell) data. Further, the intensity values were corrected for imaging artifacts due to out-of-focus fluorescence by subtracting the mean intensity of an annular mask with an outer radius of 18 pixels and an inner radius of 9 pixels (i.e., size of the ROI) for each ROI. […]

## CC1(C)S[C@@H]2[C@H](NC(=O)Cc3ccccc3)C(=O)N2[C@H]1C(=O)O [Penicillin G, Penicillin G sodium salt]
4 cells per tissue, post-treatment with Penicillin G (FIG. 4e,f)
  propagation of synchronized transient peaks from treated tissue to cells in the untreated tissue (share of the time): ~45%
Treated chamber, immediately following treatment, Penicillin G sodium salt 100 mg/ml bath application, Fluo-4 calcium imaging
  fluorescence in the treated tissue compared to the baseline: increased amount of fluorescence
Treated chamber, post-treatment, Penicillin G 100 mg/ml, indicative for abnormal excessive discharges
  neuronal activity and synchrony of transient spikes in the treated tissue: increased magnitude and frequency of neuronal activity, as well as synchrony of transient spikes
Untreated chamber connected across 8 μm porous membrane, post-treatment of the other chamber
  intensity and neuronal activity of neurons in the untreated chamber: increased intensity and neuronal activity
